In patent US8178506B2, “Oligomeric compounds and compositions for use in modulation of small non-coding RNAs” (Regulus Therapeutics Inc., priority 2003, dated 2012):
Where “and” joins values, the source holds several entries; their conditions need not be identical. Identical values can stand only once. In the oligonucleotide strings, read from the 5' end, every base follows the letter of its sugar. An asterisk marks phosphorothioate; unmarked linkages are phosphodiester. Other units and linkages are bracketed, terminal groups are in braces. A string of capitals states the bases alone. e = 2'-O-(2-methoxyethyl) (MOE); [5mC] = 5-methylcytosine

Tested on: HeLa cells
Assay: Cell cycle assay in HeLa cells
Format: cell-based, human
Details: HeLa cells
[1] = 150 nM oligomeric compound, 24 hours, relative to untreated control (UTC = 100)
[2] = 150 nM oligomeric compound, 48 hours after treatment, relative to untreated control (UTC=100)
[3] = 150 nM, 48 hours, relative to untreated control
[4] = 25 nM, 48 hours, percentage of cells in phase, average of replicates
[5] = 50 nM, 48 hours, percentage of cells in phase, average of replicates
[6] = 100 nM, 48 hours, percentage of cells in phase, average of replicates
[7] = 150 nM, 48 hours, percentage of cells in phase, average of replicates

## 327876 (antisense eA*eA*e[5mC]*eA*e[5mC]*eT*eG*eA*eT*eT*eT*e[5mC]*eA*eA*eA*eT*eG*eG*eT*eG*e[5mC]*eT*eA) [compound 327876]
[1]
  % cells aneuploid: 66% and 75%
  % cells in cell cycle phase G1: 98% and 93%
  % cells in cell cycle phase G2/M: 95% and 131%
  % cells in cell cycle phase S: 104% and 92%
  % cells in cell cycle phase subG1: 103% and 149%
[2]
  % cells in cell cycle phase: G1: 87% and 76%
  % cells in cell cycle phase: G2/M: 119% and 126%
  % cells in cell cycle phase: S: 120% and 141%
  % cells in cell cycle phase: aneuploid: 100% and 69%

## 327877 (antisense e[5mC]*eG*e[5mC]*e[5mC]*eA*eA*eT*eA*eT*eT*eT*eA*e[5mC]*eG*eT*eG*e[5mC]*eT*eG*e[5mC]*eT*eA) [compound 327877]
[1]
  % cells aneuploid: 62%
  % cells in cell cycle phase G1: 107%
  % cells in cell cycle phase G2/M: 159%
  % cells in cell cycle phase S: 66%
  % cells in cell cycle phase subG1: 154%
[2]
  % cells in cell cycle phase: G1: 59%
  % cells in cell cycle phase: G2/M: 168%
  % cells in cell cycle phase: S: 152%
  % cells in cell cycle phase: aneuploid: 80%
  % cells in cell cycle phase: subG1: 755%

## 327878 (antisense e[5mC]*eT*eA*eG*eT*eG*eG*eT*e[5mC]*e[5mC]*eT*eA*eA*eA*e[5mC]*eA*eT*eT*eT*e[5mC]*eA*e[5mC]) [compound 327878]
[1]
  % cells aneuploid: 73%
  % cells in cell cycle phase G1: 96%
  % cells in cell cycle phase G2/M: 122%
  % cells in cell cycle phase S: 94%
  % cells in cell cycle phase subG1: 124%
[2]
  % cells in cell cycle phase: G1: 89%
  % cells in cell cycle phase: G2/M: 114%
  % cells in cell cycle phase: S: 119%
  % cells in cell cycle phase: aneuploid: 92%
  % cells in cell cycle phase: subG1: 50%

## 327885 (antisense eA*e[5mC]*eT*eA*e[5mC]*e[5mC]*eT*eG*e[5mC]*eA*e[5mC]*eT*eG*eT*eA*eA*eG*e[5mC]*eA*e[5mC]*eT*eT*eT*eG) [compound 327885]
[1]
  % cells aneuploid: 55%
  % cells in cell cycle phase G1: 129%
  % cells in cell cycle phase G2/M: 121%
  % cells in cell cycle phase S: 63%
  % cells in cell cycle phase subG1: 151%
[2]
  % cells in cell cycle phase: G1: 78%
  % cells in cell cycle phase: G2/M: 133%
  % cells in cell cycle phase: S: 129%
  % cells in cell cycle phase: aneuploid: 76%
  % cells in cell cycle phase: subG1: 456%

## 327889 (antisense eG*eT*eG*eG*eT*eA*eA*eT*e[5mC]*e[5mC]*e[5mC]*eT*eG*eG*e[5mC]*eA*eA*eT*eG*eT*eG*eA*eT) [compound 327889]
[1]
  % cells aneuploid: 82%
  % cells in cell cycle phase G1: 104%
  % cells in cell cycle phase G2/M: 87%
  % cells in cell cycle phase S: 102%
  % cells in cell cycle phase subG1: 122%
[2]
  % cells in cell cycle phase: G1: 78%
  % cells in cell cycle phase: G2/M: 130%
  % cells in cell cycle phase: S: 137%
  % cells in cell cycle phase: aneuploid: 101%
  % cells in cell cycle phase: subG1: 133%

## 327892 (antisense eA*e[5mC]*eT*eT*eT*e[5mC]*eG*eG*eT*eT*eA*eT*e[5mC]*eT*eA*eG*e[5mC]*eT*eT*eT*eA) [compound 327892]
[1]
  % cells aneuploid: 80%
  % cells in cell cycle phase G1: 86%
  % cells in cell cycle phase G2/M: 103%
  % cells in cell cycle phase S: 111%
  % cells in cell cycle phase subG1: 153%
[2]
  % cells in cell cycle phase: G1: 74%
  % cells in cell cycle phase: G2/M: 129%
  % cells in cell cycle phase: S: 150%
  % cells in cell cycle phase: aneuploid: 79%
  % cells in cell cycle phase: subG1: 121%

## 327896 (antisense eA*e[5mC]*eA*eG*eT*eT*e[5mC]*eT*eT*e[5mC]*eA*eA*e[5mC]*eT*eG*eG*e[5mC]*eA*eG*e[5mC]*eT*eT) [compound 327896]
[1]
  % cells aneuploid: 65%
  % cells in cell cycle phase G1: 83%
  % cells in cell cycle phase G2/M: 128%
  % cells in cell cycle phase S: 103%
  % cells in cell cycle phase subG1: 121%
[2]
  % cells in cell cycle phase: G1: 55%
  % cells in cell cycle phase: G2/M: 194%
  % cells in cell cycle phase: S: 140%
  % cells in cell cycle phase: aneuploid: 66%
  % cells in cell cycle phase: subG1: 886%
[3]
  % cells in cell cycle phase G1: 103%
  % cells in cell cycle phase G2/M: 106%
  % cells in cell cycle phase S: 94%
  % cells in cell cycle phase aneuploid: 144%
  % cells in cell cycle phase subG1: 95%

## 327897 (antisense eA*e[5mC]*eA*eG*eG*e[5mC]*e[5mC]*eG*eG*eG*eA*e[5mC]*eA*eA*eG*eT*eG*e[5mC]*eA*eA*eT*eA) [compound 327897]
[1]
  % cells aneuploid: 69% and 54%
  % cells in cell cycle phase G1: 114% and 128%
  % cells in cell cycle phase G2/M: 115% and 100%
  % cells in cell cycle phase S: 80% and 74%
  % cells in cell cycle phase subG1: 143% and 180%
[2]
  % cells in cell cycle phase: G1: 100% and 94%
  % cells in cell cycle phase: G2/M: 95% and 105%
  % cells in cell cycle phase: S: 103% and 114%
  % cells in cell cycle phase: aneuploid: 84% and 63%
  % cells in cell cycle phase: subG1: 134% and 125%

## 327901 (antisense eT*eG*eA*eG*e[5mC]*eT*eA*e[5mC]*eA*eG*eT*eG*e[5mC]*eT*eT*e[5mC]*eA*eT*e[5mC]*eT*e[5mC]*eA) [compound 327901]
[1]
  % cells aneuploid: 90%
  % cells in cell cycle phase G1: 101%
  % cells in cell cycle phase G2/M: 110%
  % cells in cell cycle phase S: 94%
  % cells in cell cycle phase subG1: 108%
[2]
  % cells in cell cycle phase: G1: 98%
  % cells in cell cycle phase: G2/M: 103%
  % cells in cell cycle phase: S: 104%
  % cells in cell cycle phase: aneuploid: 104%
  % cells in cell cycle phase: subG1: 93%

## 327902 (antisense eG*eG*e[5mC]*eT*eG*eT*e[5mC]*eA*eA*eT*eT*e[5mC]*eA*eT*eA*eG*eG*eT*e[5mC]*eA*eG) [compound 327902]
25 nM, 48 hours
  % cells in cell cycle phase: G2/M: 19%
[4]
  % cells in cell cycle phase: G1: 57%
  % cells in cell cycle phase: S: 23%
  % cells in cell cycle phase: aneuploid: 13%
  % cells in cell cycle phase: subG1: 1.6%
50 nM, 48 hours
  % cells in cell cycle phase: G2/M: 20%
[5]
  % cells in cell cycle phase: G1: 51%
  % cells in cell cycle phase: S: 30%
  % cells in cell cycle phase: aneuploid: 14%
  % cells in cell cycle phase: subG1: 2.4%
100 nM, 48 hours
  % cells in cell cycle phase: G2/M: 27%
[6]
  % cells in cell cycle phase: G1: 43%
  % cells in cell cycle phase: S: 30%
  % cells in cell cycle phase: aneuploid: 11%
  % cells in cell cycle phase: subG1: 3.1%
[1]
  % cells aneuploid: 66% and 98%
  % cells in cell cycle phase G1: 57% and 44%
  % cells in cell cycle phase G2/M: 176% and 163%
  % cells in cell cycle phase S: 106% and 121%
  % cells in cell cycle phase subG1: 178% and 175%
[2]
  % cells in cell cycle phase: G1: 39% and 44%
  % cells in cell cycle phase: G2/M: 208% and 205%
  % cells in cell cycle phase: S: 171% and 166%
  % cells in cell cycle phase: aneuploid: 81% and 87%
150 nM, 48 hours
  % cells in cell cycle phase: G2/M: 28%
[3]
  % cells in cell cycle phase G1: 108%
  % cells in cell cycle phase G2/M: 93%
  % cells in cell cycle phase S: 96%
  % cells in cell cycle phase aneuploid: 162%
  % cells in cell cycle phase subG1: 94%
[7]
  % cells in cell cycle phase: G1: 36%
  % cells in cell cycle phase: S: 36%
  % cells in cell cycle phase: aneuploid: 12%
  % cells in cell cycle phase: subG1: 6.3%

## 327903 (antisense eA*eA*e[5mC]*eT*eA*eT*eA*e[5mC]*eA*eA*e[5mC]*e[5mC]*eT*eA*e[5mC]*eT*eA*e[5mC]*e[5mC]*eT*e[5mC]*eA) [compound 327903]
[1]
  % cells aneuploid: 98%
  % cells in cell cycle phase G1: 92%
  % cells in cell cycle phase G2/M: 106%
  % cells in cell cycle phase S: 104%
  % cells in cell cycle phase subG1: 118%
[2]
  % cells in cell cycle phase: G1: 102%
  % cells in cell cycle phase: G2/M: 98%
  % cells in cell cycle phase: S: 95%
  % cells in cell cycle phase: aneuploid: 94%
  % cells in cell cycle phase: subG1: 74%

## 327904 (antisense eA*e[5mC]*eT*e[5mC]*eA*e[5mC]*e[5mC]*eG*eA*e[5mC]*eA*eG*e[5mC]*eG*eT*eT*eG*eA*eA*eT*eG*eT*eT) [compound 327904]
[1]
  % cells aneuploid: 89%
  % cells in cell cycle phase G1: 99%
  % cells in cell cycle phase G2/M: 99%
  % cells in cell cycle phase S: 102%
  % cells in cell cycle phase subG1: 114%
[2]
  % cells in cell cycle phase: G1: 87%
  % cells in cell cycle phase: G2/M: 114%
  % cells in cell cycle phase: S: 126%
  % cells in cell cycle phase: aneuploid: 80%
  % cells in cell cycle phase: subG1: 116%

## 327905 (antisense e[5mC]*eA*eG*eA*e[5mC]*eT*e[5mC]*e[5mC]*eG*eG*eT*eG*eG*eA*eA*eT*eG*eA*eA*eG*eG*eA) [compound 327905]
25 nM, 48 hours
  % cells in cell cycle phase: G2/M: 18%
[4]
  % cells in cell cycle phase: G1: 57%
  % cells in cell cycle phase: S: 24%
  % cells in cell cycle phase: aneuploid: 12%
  % cells in cell cycle phase: subG1: 1.7%
50 nM, 48 hours
  % cells in cell cycle phase: G2/M: 20%
[5]
  % cells in cell cycle phase: G1: 50%
  % cells in cell cycle phase: S: 30%
  % cells in cell cycle phase: aneuploid: 12%
  % cells in cell cycle phase: subG1: 2.1%
100 nM, 48 hours
  % cells in cell cycle phase: G2/M: 24%
[6]
  % cells in cell cycle phase: G1: 46%
  % cells in cell cycle phase: S: 30%
  % cells in cell cycle phase: aneuploid: 14%
  % cells in cell cycle phase: subG1: 2.5%
[1]
  % cells aneuploid: 50% and 98%
  % cells in cell cycle phase G1: 99% and 94%
  % cells in cell cycle phase G2/M: 129% and 121%
  % cells in cell cycle phase S: 88% and 95%
  % cells in cell cycle phase subG1: 144% and 149%
[2]
  % cells in cell cycle phase: G1: 48% and 78%
  % cells in cell cycle phase: G2/M: 150% and 122%
  % cells in cell cycle phase: S: 194% and 143%
  % cells in cell cycle phase: aneuploid: 67% and 99%
150 nM, 48 hours
  % cells in cell cycle phase: G2/M: 24%
[3]
  % cells in cell cycle phase G1: 108%
  % cells in cell cycle phase G2/M: 90%
  % cells in cell cycle phase S: 99%
  % cells in cell cycle phase aneuploid: 164%
  % cells in cell cycle phase subG1: 55%
[7]
  % cells in cell cycle phase: G1: 38%
  % cells in cell cycle phase: S: 38%
  % cells in cell cycle phase: aneuploid: 12%
  % cells in cell cycle phase: subG1: 4.5%
